In patent US7473433B2, “Pulmonary delivery of polyene antifungal agents” (priority 2000, dated 2009):
Converted amounts (≈) assume the structure as drawn. Where two headings read alike, the source gives them in different places. Blank lines part the entries; values can stand above or below the molecule they belong to.

Columns and labels:
[1] = cited from earlier work
[2] = Apparent solubility of AmB in pH-adjusted methanol; type: physicochemical; details: for Solubility: 0 °C, MeOH
Method: (§1) In an attempt to reduce the extent of chemical degradation of amphotericin, while also finding solution conditions under which amphotericin B was reasonably soluble (e.g., to an extent greater than about 1 mg/mL), solubility experiments were conducted. The experiments were performed at room temperature for the first 2 hour while adjusting for solution pH. After the amphotericin B was completely dissolved, the samples were transferred to a 4° C. refrigerator for further chemical stability analysis. Table 7 summarizes the formulation details and apparent solubilities at specific pH conditions.
Additional solubility of amphotericin B and stability of the representative formulation, R0140, was investigated. The solubility of amphotericin at pH 5 and at pH 4.7 was investigated; additionally, the chemical stability of amphotericin B at pH 4.8 was further examined. In these experiments, samples were placed in an ice bath during the formulation preparation.

[3] = type: physicochemical; details: for % AmB pH 3: MeOH pH 3, ice bath; for % AmB pH 4: MeOH pH 4, ice bath
Excerpt: The “extent of degradation” of a polyene is the percentage of polyene contained in the dry powder composition determined to be chemically modified from the intact starting material, as determined by a suitable chemical assay (e.g., NMR, HPLC, etc.); 100% of the polyene remaining chemically intact during the spray drying process represents an extent of degradation of 0%.
• Amphotericin B (Spectrum, New Brunswick, N.J.; Alapharma) • Nystatin (Spectrum, New Brunswick, N.J.) • Methanol dehydrated, HPLC grade (EM Industries, Gibbstown, N.J.) • Sodium Hydroxide, 50% (J. T. Baker, Phillipsburg, N.J.) • L-Leucine (Aldrich) • Hydrochloric Acid (J. T. Baker, Phillipsburg, N.J.) • Sodium Deoxycholate (Spectrum, New Brunswick, N.J.) Methods • Reverse Phase-HPLC • RP-HPLC analysis was performed on a Waters 2690HPLC system with a Waters Detector 996 (Skywalker, Inhale No.101232). The system was equipped with either a Vydac C-18 column or an YMC ODC-AQ™ C-18 column. Samples were eluted with a gradient mobile phases consisted of 10 mM sodium acetate buffer (mobile phase A) at pH 5 and CAN (mobile phase B). The flow rate was maintained at 1.0 ml/min, the detector wavelength was 383 nm, and the injection volume was 30μL (microliter). Stability Samples
as §1
Solutions were prepared as follows. Amphotericin B (AmB) was added to MeOH (3 mg AmB/mL) at either room temperature or in an ice bath. […] The chemical stability of AmB was determined by an HPLC assay as a function of time over 24 hours.

[4] = Solubility of polyenes and excipients in single solvents; type: physicochemical
Method: The solubility of amphotericin and excipients/additives of interest was determined in various solvents in an attempt to find a solvent system suitable for spray drying (i.e., having a sufficiently high vapor pressure) and capable of dissolving both amphotericin and any added excipients at an extent greater than about 10 mg/mL solvent. Although active agents can be spray-dried as suspensions, having the formulation components dissolved in solution provides resulting particles having a homogeneous composition (i.e., when comparing one particle to another particle)—that is to say, each particle in the composition has approximately the same composition and distribution of formulation components.
Amphotericin B is soluble in water at pHs lower than 3 and higher than 10, but only to a limited extent (0.2 mg/ml) —making the volume of solvent required for spray drying under these conditions too large to be reasonably handled. Thus, the following solubilities were experimentally determined to find a single (non-mixed) solvent system for spray drying representative amphotericin B and nystatin formulations.

- Solubility ([2]; pH 4.7, organic solvent or mixture, pH 4.7, in ice): 3400 µg/mL (≈ 3.68 mM)
- Solubility ([2]; pH 5, organic solvent or mixture, pH 5.0, in ice): ~3000 µg/mL (≈ 3.25 mM)
- solubility at 2 h ([2]; organic solvent or mixture, in MeOH, room temperature, pH of the formulation 4.4, 6.9 or 9.6): 2900 µg/mL (≈ 3.14 mM)
- % AmB pH 3 ([3]; 4 hr): 93%
- % AmB pH 3 ([3]; 18.5 hr): 90%
- % AmB pH 3 ([3]; 26 hr): 85%
- % AmB pH 3 ([3]; […]): 95%
- % AmB pH 4 ([3]; 1 hr): 94%
- % AmB pH 4 ([3]; 4 hr): 96%
- % AmB pH 4 ([3]; 18.5 hr): 97%
- % AmB pH 4 ([3]; 26 hr): 93%
- % AmB ([3]; MeOH pH 4.8, in ice bath, 4 hr): 99%
- % AmB ([3]; MeOH pH 4.8, in ice bath, 6 hr): 97%
- % AmB ([3]; MeOH pH 4.8, in ice bath, 8 hr): 94%
- % AmB ([3]; MeOH pH 4.8, in ice bath, 24 hr): 97%
- % AmB ([3]; MeOH pH 4.8, in ice bath, […]): 97%
- % AmB ([3]; MeOH pH 4.8, room temperature, 4 hr): 85%
- % AmB ([3]; MeOH pH 4.8, room temperature, 6 hr): 83%
- % AmB ([3]; MeOH pH 4.8, room temperature, 8 hr): 84%
- % AmB ([3]; MeOH pH 4.8, room temperature, 24 hr): 78%
- % AmB ([3]; MeOH pH 4.8, room temperature, […]): 89%
- AmB (%) ([3]; MeOH solution, T = 8 hr (4° C. after first 2 hr)): about 92%
- Main Peak % ([3]; MeOH, pH 4.8, in ice): 92.0%
- AmB (%) ([3]; MeOH, pH 4.8, in ice, during formulation preparation): 97%
Structure (SMILES): C[C@@H]1[C@H](O)[C@@H](C)/C=C/C=C/C=C/C=C/C=C/C=C/C=C/[C@H](O[C@@H]2O[C@H](C)[C@@H](O)[C@H](N)[C@@H]2O)C[C@@H]2O[C@](O)(C[C@@H](O)C[C@@H](O)[C@H](O)CC[C@@H](O)C[C@@H](O)CC(=O)O[C@H]1C)C[C@H](O)[C@H]2C(=O)O [Amphotericin B]
- Solubility in water ([1]; water at pH 6 to 7): insoluble
- Solubility in water ([1]; water at pHs lower than 3 and higher than 10): 200 µg/mL (≈ 0.216 mM)

Structure (SMILES): C[C@@H]1[C@H](O)[C@@H](C)/C=C/C=C/CC/C=C/C=C/C=C/C=C/C(O[C@H]2O[C@H](C)[C@@H](O)[C@H](N)[C@@H]2O)CC2O[C@](O)(CC(O)C(O)CCC(O)CC(O)CC(O)CC(=O)O[C@H]1C)CC(O)C2C(=O)O (stereo partly drawn) [Nystatin]
- Solubility ([4]; Acetone): 0.1 mg compound/g solvent
- Solubility ([4]; Chloroform): 0.7 mg compound/g solvent
- Solubility ([4]; DI Water): 1.1 mg compound/g solvent
- Solubility ([4]; Ethanol): 0.8 mg compound/g solvent
- Solubility ([4]; Ethyl Ether): 0.1 mg compound/g solvent
- Solubility ([4]; Hexane): 0.0 mg compound/g solvent
- Solubility ([4]; IP Acetate): 0.1 mg compound/g solvent
- Solubility ([4]; IPA): 0.1 mg compound/g solvent
- Solubility ([4]; Isobutyl Alcohol): 0.5 mg compound/g solvent
- Solubility ([4]; Meth. Chloride): 3.9 mg compound/g solvent
- Solubility ([4]; Methanol): 11.0 mg compound/g solvent
- Solubility ([4]; Pet. Ether): 0.0 mg compound/g solvent
- Solubility ([4]; THF): 1.6 mg compound/g solvent
